Source: BindingDB's records for doi:10.1111/cbdd.12812 (Yueyang Vocational Technical College, 2016)

Target: T1, Aromatase (Homo sapiens, UniProt P11511)
T1 sequence (P11511 whole entry): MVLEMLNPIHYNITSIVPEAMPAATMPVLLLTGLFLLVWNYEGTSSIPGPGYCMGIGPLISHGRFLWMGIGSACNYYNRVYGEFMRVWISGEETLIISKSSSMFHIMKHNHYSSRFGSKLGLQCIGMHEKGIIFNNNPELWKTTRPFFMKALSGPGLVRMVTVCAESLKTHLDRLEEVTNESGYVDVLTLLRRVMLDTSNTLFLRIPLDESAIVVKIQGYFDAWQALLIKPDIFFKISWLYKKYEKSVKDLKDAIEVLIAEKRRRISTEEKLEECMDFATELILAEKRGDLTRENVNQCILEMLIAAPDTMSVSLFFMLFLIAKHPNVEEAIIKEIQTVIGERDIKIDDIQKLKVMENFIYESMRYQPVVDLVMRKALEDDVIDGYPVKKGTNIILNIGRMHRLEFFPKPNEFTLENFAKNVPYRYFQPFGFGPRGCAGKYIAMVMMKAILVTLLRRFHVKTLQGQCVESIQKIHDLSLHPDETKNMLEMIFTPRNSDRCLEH
Assay: Aromatase Inhibition Activity Assay
Conditions: pH 7.5; 37 °C
Protocol: Briefly, concentrated stock solutions of test compounds were prepared in acetonitrile. Hundred microliters of samples containing serial dilutions of test compounds (dilution factor of 3 between samples) and cofactor mixture (0.4 U/mL glucose-6-phosphate dehydrogenase; 16.2 μm NADP+; 825 μm MgCl2; 825 μm glucose-6- phosphate; 50 μm citrate buffer, pH 7.5) was prepared in a 96-well plate. […] The plate was covered and incubated for 30 min at 37 °C. Seventy-five microliters of 0.5 m Tris base was then added to stop the reaction, and the fluorescence of the formed de-methylated MFC was measured with a plate reader (Spectra Max Gemini; Molecular Devices, Sunnyvale, CA, USA).

Row | SMILES | IC50 [nM]
1 | Cc1c(C(=O)CSC#N)c(=O)n(-c2ccccc2)n1C [1,2-Dihydro-1,5-dimethyl-2-phenyl-4-thiocyanatoacetyl-3H-pyrazol-3-one (2)] | 6.7
2 | Cc1c(-c2csc(Cl)n2)c(=O)n(-c2ccccc2)n1C [2-Chloro-4-[4-(1,2-dihydro-1,5-dimethyl-2-phenyl-3-oxo-3H-pyrazol-4-yl)thiazole (26)] | 3.3
3 | Cc1c(-c2csc(O)n2)c(=O)n(-c2ccccc2)n1C [2-Hydroxy-4-([4-(1,2-dihydro-1,5-dimethyl-2-phenyl-3-oxo-3H-pyrazol-4-yl)thiazole (25)] | 3.5
4 | Cc1c(C(=O)c2nn3c(nc(=O)c4ccccc43)s2)c(=O)n(-c2ccccc2)n1C [2-[4-(1,2-Dihydro-1,5-dimethyl-2-phenyl-3-oxo-3H-pyrazol-4-yl]-1,3,4-thiazolo[3,2-a]-1,3-quinazolin-2-one (10b)] | 3.9
5 | Cc1c(C(=O)c2sc(=N)sc2Nc2ccccc2)c(=O)n(-c2ccccc2)n1C [4-[4-(1,2-Dihydro-1,5-dimethyl-2-phenyl-3-oxo-3H-pyrazol-4-ylcarbonyl)]-5-phenylamino-1,3-dithiole-2-imine (7)] | 4.6
